# Like-named read-outs stand apart in the source and are kept apart here.
# Target: T1, human GluN1/GluN2B NMDA receptors (Homo sapiens, UniProt Q13224)
# T1 construct: expressed in transfected cells
# Experiment: Cell-based calcium flux (FLIPR) assay on cloned human NR1/NR2B ion channels expressed in mammalian cells (standard and HTS buffer variants);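 further: stable Tet-On inducible cell line, Ca2+ influx triggered by glutamate at about EC40 plus 10 µM glycine, fluorescent dye read-out over 5 min, normalized to control wells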
# [1] = HTS assay buffer (1.5 mM MgCl2 in dye loading buffer; 150 mM NaCl, 3 mM KCl in assay buffer), human GluN1/GluN2B, read-out: NR2B IC50 (μM) HTS assay
# [2] = standard assay buffer (0.5 mM MgCl2 dye loading; 137 mM NaCl, 4 mM KCl assay buffer), human GluN1/GluN2B cells, read-out: NR2B IC50 (μM) standard assay
# [3] = standard assay buffer (0.5 mM MgCl2 in dye loading buffer; 137 mM NaCl, 4 mM KCl in assay buffer), human GluN1/GluN2B, read-out: NR2B IC50 (μM) standard assay
# T1 sequence (Q13224 27-1484, other chains not shown): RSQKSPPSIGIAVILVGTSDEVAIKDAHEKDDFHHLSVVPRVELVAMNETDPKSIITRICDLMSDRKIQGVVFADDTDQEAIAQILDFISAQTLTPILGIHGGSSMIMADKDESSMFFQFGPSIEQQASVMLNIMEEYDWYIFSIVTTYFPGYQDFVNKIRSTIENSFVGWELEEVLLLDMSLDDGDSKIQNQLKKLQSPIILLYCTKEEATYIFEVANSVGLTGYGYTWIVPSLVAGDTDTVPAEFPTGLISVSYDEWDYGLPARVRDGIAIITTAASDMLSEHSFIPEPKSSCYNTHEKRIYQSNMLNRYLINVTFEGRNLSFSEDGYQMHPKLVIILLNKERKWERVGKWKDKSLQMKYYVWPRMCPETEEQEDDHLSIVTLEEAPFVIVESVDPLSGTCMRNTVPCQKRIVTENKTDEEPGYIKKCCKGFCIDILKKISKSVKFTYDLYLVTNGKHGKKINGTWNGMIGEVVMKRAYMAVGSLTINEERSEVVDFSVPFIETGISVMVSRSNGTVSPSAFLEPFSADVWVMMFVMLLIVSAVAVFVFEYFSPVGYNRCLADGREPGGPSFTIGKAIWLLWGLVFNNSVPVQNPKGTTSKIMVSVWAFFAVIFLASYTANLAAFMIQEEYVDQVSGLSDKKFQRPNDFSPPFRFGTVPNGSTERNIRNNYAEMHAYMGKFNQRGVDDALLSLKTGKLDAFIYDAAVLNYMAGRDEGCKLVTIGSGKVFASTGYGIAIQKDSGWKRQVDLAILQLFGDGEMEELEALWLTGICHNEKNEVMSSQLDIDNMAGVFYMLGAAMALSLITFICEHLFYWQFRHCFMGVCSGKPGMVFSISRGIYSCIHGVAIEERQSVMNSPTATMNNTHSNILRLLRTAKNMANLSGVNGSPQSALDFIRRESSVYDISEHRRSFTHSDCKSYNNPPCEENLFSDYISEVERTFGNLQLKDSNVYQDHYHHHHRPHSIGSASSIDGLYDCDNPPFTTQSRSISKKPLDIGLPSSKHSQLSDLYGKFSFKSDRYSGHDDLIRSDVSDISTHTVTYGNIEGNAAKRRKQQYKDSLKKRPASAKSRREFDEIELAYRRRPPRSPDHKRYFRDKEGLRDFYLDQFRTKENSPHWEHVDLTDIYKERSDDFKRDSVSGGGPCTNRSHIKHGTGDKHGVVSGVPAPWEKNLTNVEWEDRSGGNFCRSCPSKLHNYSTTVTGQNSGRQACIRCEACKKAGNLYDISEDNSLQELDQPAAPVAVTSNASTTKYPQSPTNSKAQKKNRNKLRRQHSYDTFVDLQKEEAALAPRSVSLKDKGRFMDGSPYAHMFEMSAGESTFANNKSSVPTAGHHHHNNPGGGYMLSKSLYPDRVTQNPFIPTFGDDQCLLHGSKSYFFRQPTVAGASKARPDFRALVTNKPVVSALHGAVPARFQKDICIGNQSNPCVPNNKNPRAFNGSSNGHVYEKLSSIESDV
SMILES,IC50 [2],IC50 [3],also measured
"Cc1cc(C)cc(-c2cnc3[nH]c(=O)n(Cc4ccccc4C#N)c3c2)c1 [Example 488, 2-[[6-(3,5-Dimethylphenyl)-2-oxo-3H-imidazo[4,5-b]pyridin-1-yl]methyl]benzonitrile]",–,–,IC50 [1]: 4.95 µM
"Cn1c(=O)n(Cc2ccncn2)c2cc(-c3cccc(C(F)(F)F)c3)cnc21 [Example 246, 3-Methyl-1-(pyrimidin-4-ylmethyl)-6-[3-(trifluoromethyl)phenyl]imidazo[4,5-b]pyridin-2-one]",0.349 µM,–,–
"Cn1c(=O)n(CC(=O)N2CC(F)C2)c2cc(-c3ccc(C4CC4)s3)cnc21 [Example 106, 6-(5-Cyclopropyl-2-thienyl)-1-[2-(3-fluoroazetidin-1-yl)-2-oxo-ethyl]-3-methyl-imidazo[4,5-b]pyridin-2-one]",0.039 µM,–,–
"CCOc1cccc(-c2cnc3[nH]c(=O)n(CC(=O)NC4CC4)c3c2)c1 [Example 449, N-Cyclopropyl-2-[6-(3-ethoxyphenyl)-2-oxo-3H-imidazo[4,5-b]pyridin-1-yl]acetamide]",–,–,IC50 [1]: 0.638 µM
"CN(C)C(=O)Cn1c(=O)n(C)c2ncc(-c3cccc(C(F)F)c3)cc21 [Example 426, 2-[6-[3-(Difluoromethyl)phenyl]-3-methyl-2-oxo-imidazo[4,5-b]pyridin-1-yl]-N,N-dimethyl-acetamide]",–,0.019 µM,–
"Cc1csc(-c2cnc3c(c2)n(CC(=O)N2CC(F)C2)c(=O)n3C)n1 [Example 86, 1-[2-(3-Fluoroazetidin-1-yl)-2-oxo-ethyl]-3-methyl-6-(4-methylthiazol-2-yl)imidazo[4,5-b]pyridin-2-one]",1.6 µM,–,–
"Cn1c(=O)n(Cc2cccnn2)c2cc(-c3ccc(C(F)(F)F)s3)cnc21 [Example 84, 3-Methyl-1-(pyridazin-3-ylmethyl)-6-[5-(trifluoromethyl)-2-thienyl]imidazo[4,5-b]pyridin-2-one]",0.03 µM,–,–
"COc1cccc(Cn2c(=O)[nH]c3ncc(-c4cccnc4)cc32)c1 [Example 506, 1-[(3-Methoxyphenyl)methyl]-6-(3-pyridyl)-3H-imidazo[4,5-b]pyridin-2-one]",–,–,IC50 [1]: > 29 µM
"CC(C)C(=O)Cn1c(=O)[nH]c2ncc(-c3cccc(C(F)(F)F)c3)cc21 [Example 241, 1-(3-Methyl-2-oxo-butyl)-6-[3-(trifluoromethyl)phenyl]-3H-imidazo[4,5-b]pyridin-2-one]",0.093 µM,–,–
"COc1cc(F)ccc1-c1cnc2[nH]c(=O)n(Cc3cccc(F)c3)c2c1 [Example 499, 6-(4-Fluoro-2-methoxy-phenyl)-1-[(3-fluorophenyl)methyl]-3H-imidazo[4,5-b]pyridin-2-one]",–,0.09 µM,–
"Cc1cc(Cn2c(=O)n(C)c3ncc(-c4ccc(C(F)F)s4)cc32)no1 [Example 564, 6-[5-(Difluoromethyl)-2-thienyl]-3-methyl-1-[(5-methylisoxazol-3-yl)methyl]imidazo[4,5-b]pyridin-2-one]",–,0.087 µM,–
"Cc1cc(-c2cnc3[nH]c(=O)n(Cc4ccn(C)n4)c3c2)ccc1F [Example 129, 6-(4-Fluoro-3-methyl-phenyl)-1-[(1-methylpyrazol-3-yl)methyl]-3H-imidazo[4,5-b]pyridin-2-one]",0.394 µM,–,–
"Cn1cc(Cn2c(=O)n(C)c3ncc(-c4ccc(C(F)F)s4)cc32)nn1 [Example 559, 6-[5-(Difluoromethyl)-2-thienyl]-3-methyl-1-[(1-methyltriazol-4-yl)methyl]imidazo[4,5-b]pyridin-2-one]",–,0.28 µM,–
"Cn1cc(Cn2c(=O)[nH]c3ncc(-c4ccc(F)cc4)cc32)cn1 [Example 15, 6-(4-Fluorophenyl)-1-[(1-methylpyrazol-4-yl)methyl]-3H-imidazo[4,5-b]pyridin-2-one]",0.204 µM,–,–
"COc1cccc(-c2cnc3[nH]c(=O)n(Cc4ccccn4)c3c2)c1 [Example 288, 6-(3-Methoxyphenyl)-1-(2-pyridylmethyl)-3H-imidazo[4,5-b]pyridin-2-one]",4.05 µM,–,–
"Cn1c(=O)n(CC(=O)NCCCCl)c2cc(-c3ccc(C(F)(F)F)s3)cnc21 [Example 532, N-(3-Chloropropyl)-2-[3-methyl-2-oxo-6-[5-(trifluoromethyl)-2-thienyl]imidazo[4,5-b]pyridin-1-yl]acetamide]",–,0.862 µM,–
"Cc1cnc(Cn2c(=O)[nH]c3ncc(-c4cccc(C(F)(F)F)c4)cc32)c(F)c1 [Example 234, 1-[(3-Fluoro-5-methyl-2-pyridyl)methyl]-6-[3-(trifluoromethyl)phenyl]-3H-imidazo[4,5-b]pyridin-2-one]",1.98 µM,–,–
"Cc1c(F)ccc(-c2cnc3c(c2)n(Cc2cnccn2)c(=O)n3C)c1F [Example 139, 6-(2,4-Difluoro-3-methyl-phenyl)-3-methyl-1-(pyrazin-2-ylmethyl)imidazo[4,5-b]pyridin-2-one]",0.084 µM,–,–
"Cn1c(=O)n(CC(=O)N2CCCC2)c2cc(-c3ccc(C(F)(F)F)s3)cnc21 [Example 328, 3-Methyl-1-(2-oxo-2-pyrrolidin-1-yl-ethyl)-6-[5-(trifluoromethyl)-2-thienyl]imidazo[4,5-b]pyridin-2-one]",–,0.079 µM,–

SMILES,IC50 [2],IC50 [3],also measured
"Cn1c(=O)n(Cc2ccncc2)c2cc(-c3cccc(F)c3)cnc21 [Example 52, 6-(3-Fluorophenyl)-3-methyl-1-(4-pyridylmethyl)imidazo[4,5-1D]pyridin-2-one]",3.33 µM,–,–
"Cc1cc(-c2cnc3c(c2)n(CC(=O)N(C)C)c(=O)n3C)ccc1F [Example 420, 2-[6-(4-Fuoro-3-methyl-phenyl)-3-methyl-2-oxo-imidazo[4,5-b]pyridin-1-yl]-N,N-dimethyl-acetamide]",–,0.017 µM,–
"Cc1c(-c2cnc3[nH]c(=O)n(CCN4CCC4)c3c2)cccc1C(F)(F)F [Example 168, 1-[2-(Azetidin-1-yl)ethyl]-6-[2-methyl-3-(trifluoromethyl)phenyl]-3H-imidazo[4,5-b]pyridin-2-one]",4.23 µM,–,–
"Cn1c(=O)n(CC(=O)N2CCC2)c2cc(-c3ccc(F)c(F)c3)cnc21 [Example 422, 1-[2-(Azetidin-1-yl)-2-oxo-ethyl]-6-(3,4-difluorophenyl)-3-methyl-imidazo[4,5-b]pyridin-2-one]",–,0.01 µM,–
"Cc1ccncc1Cn1c(=O)[nH]c2ncc(-c3ccc(F)c(F)c3)cc21 [Example 275, 6-(3,4-Difluorophenyl)-1-[(4-methyl-3-pyridyl)methyl]-3H-imidazo[4,5-b]pyridin-2-one]",0.009 µM,–,–
"Cn1c(=O)n(Cc2cccnc2)c2cc(-c3cc(C(F)F)ccc3F)cnc21 [Example 386, 6-(5-(Difluoromethyl)-2-fluorophenyl)-3-methyl-1-(pyridin-3-ylmethyl)-1,3-dihydro-2H-imidazo[4,5-b]pyridin-2-one]",–,1.11 µM,–
"Cc1cc(-c2cnc3c(c2)n(Cc2cccnc2)c(=O)n3C)sc1Cl [Example 365, 6-(5-Chloro-4-methyl-2-thienyl)-3-methyl-1-(3-pyridylmethyl)imidazo[4,5-b]pyridin-2-one]",–,0.063 µM,–
"CCOc1ccc(F)cc1-c1cnc2[nH]c(=O)n(CC(=O)NC3CC3)c2c1 [Example 607, N-Cyclopropyl-2-[6-(2-ethoxy-5-fluoro-phenyl)-2-oxo-3H-imidazo[4,5-b]pyridin-1-yl]acetamide]",–,0.336 µM,–
"CN(C)C(=O)Cn1c(=O)n(C)c2ncc(-c3cc(F)c(F)c(C(F)(F)F)c3)cc21 [Example 431, 2-[6-[3,4-Difluoro-5-(trifluoromethyl)phenyl]-3-methyl-2-oxo-imidazo[4,5-b]pyridin-1-yl]-N,N-dimethyl-acetamide]",–,0.095 µM,–
"Cn1c(=O)n(CC(=O)N2CC(F)C2)c2cc(-c3ccc(F)c(OC(F)F)c3)cnc21 [Example 589, 6-[3-(Difluoromethoxy)-4-fluoro-phenyl]-1-[2-(3-fluoroazetidin-1-yl)-2-oxo-ethyl]-3-methyl-imidazo[4,5-b]pyridin-2-one]",–,0.028 µM,–
"Cc1cc(-c2cnc3[nH]c(=O)n(Cc4ncccc4C)c3c2)ccc1F [Example 316, 6-(4-Fluoro-3-methyl-phenyl)-1-[(3-methyl-2-pyridyl)methyl]-3H-imidazo[4,5-b]pyridin-2-one]",0.114 µM,–,–
"COc1ccc(-c2cnc3[nH]c(=O)n(Cc4cc(C)on4)c3c2)cc1F [Example 519, 6-(3-Fluoro-4-methoxy-phenyl)-1-[(5-methylisoxazol-3-yl)methyl]-3H-imidazo[4,5-b]pyridin-2-one]",–,0.139 µM,–
"Cn1c(=O)n(CC(=O)N2CC(F)(F)C2)c2cc(-c3ccc(C(F)(F)F)s3)cnc21 [Example 430, 1-[2-(3,3-Difluoroazetidin-1-yl)-2-oxo-ethyl]-3-methyl-6-[5-(trifluoromethyl)-2-thienyl]imidazo[4,5-b]pyridin-2-one]",–,0.028 µM,–
"COc1cc(Cn2c(=O)[nH]c3ncc(-c4c(F)cccc4OC)cc32)cc(OC)c1 [Example 509, 1-[(3,5-Dimethoxyphenyl)methyl]-6-(2-fluoro-6-methoxy-phenyl)-3H-imidazo[4,5-b]pyridin-2-one]",–,–,IC50 [1]: 0.884 µM
"Cn1c(=O)n(CC(=O)N2CC(F)C2)c2cc(-c3ccc(F)c(C(F)(F)F)c3)cnc21 [Example 407, 1-[2-(3-Fluoroazetidin-1-yl)-2-oxo-ethyl]-6-[4-fluoro-3-(trifluoromethyl)phenyl]-3-methyl-imidazo[4,5-b]pyridin-2-one]",–,0.031 µM,–
Cc1c(F)ccc(-c2cnc3c(c2)n(Cc2cncnc2)c(=O)n3C)c1F [Example 69],0.033 µM,–,–
"CNC(=O)Cn1c(=O)[nH]c2ncc(-c3ccc(Cl)cc3)cc21 [Example 436, 2-[6-(4-Chlorophenyl)-2-oxo-3H-imidazo[4,5-b]pyridin-1-yl]-N-methyl-acetamide]",–,–,IC50 [1]: 4.7 µM
"Cn1c(=O)n(Cc2csnn2)c2cc(-c3ccc(F)c(F)c3)cnc21 [Example 545, 6-(3,4-Difluorophenyl)-3-methyl-1-(thiadiazol-4-ylmethyl)imidazo[4,5-b]pyridin-2-one]",–,0.512 µM,–
